Results on two molecules are retold here after article PMC3573010, “Bacillus megaterium Has Both a Functional BluB Protein Required for DMB Synthesis and a Related Flavoprotein That Forms a Stable Radical Species” (PLoS ONE, 2013).

The target in one assay is T1, BluB(Bm) (Priestia megaterium, UniProt D5DCL0).
T1 construct: native N-terminus MNSFTN by printed primer
T1 sequence (D5DCL0 1-217): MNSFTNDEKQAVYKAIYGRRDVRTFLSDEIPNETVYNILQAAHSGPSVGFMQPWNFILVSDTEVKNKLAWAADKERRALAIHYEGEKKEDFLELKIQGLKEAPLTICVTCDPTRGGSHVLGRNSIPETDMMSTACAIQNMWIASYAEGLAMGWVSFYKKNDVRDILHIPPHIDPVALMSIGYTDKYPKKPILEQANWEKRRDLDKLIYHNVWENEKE
The assay can be described thus: HPLC of DMB formed. Format: biochemical. To be noted: O2 required; […] Tris-HCl pH […] NaCl, […] DTT; room temperature; FMN reduced in situ by NADH.

A further assay has as its target T2, BluB(Rc) (Rhodobacter capsulatus, UniProt D5AV14).
T2 construct: N-terminal His6 tag with thrombin site (pET14b), expressed in E. coli BL21star(DE3)pLysS, 25 kDa on SDS-PAGE; native N-terminus MNFEQT by printed primer
As to the kind of experiment: HPLC of DMB formed; stopped-flow detection of 4a-peroxyflavin at […] nm. To be noted: O2 required; 20 mM Tris-HCl pH 8.0, 100 mM NaCl; FMN reduced by NADH (HPLC) or dithionite (stopped-flow). Format: biochemical.

A further assay has as its target T3, CbiY(Bm) (Priestia megaterium, UniProt D5DG39).
T3 construct: native N-terminus MTIISQLK by primer
T3 sequence (D5DG39 1-189): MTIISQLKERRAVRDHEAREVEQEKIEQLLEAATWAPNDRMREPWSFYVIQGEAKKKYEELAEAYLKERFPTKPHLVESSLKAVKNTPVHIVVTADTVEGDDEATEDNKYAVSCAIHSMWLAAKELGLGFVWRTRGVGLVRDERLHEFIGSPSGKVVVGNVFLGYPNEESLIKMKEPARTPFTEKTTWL
As to the kind of experiment: UV-visible spectrum of purified holoprotein; heat release, HPLC and mass spectrometry. The note with it: non-covalently bound, co-purified. Format: binding.

T2 sequence (D5AV14 whole entry): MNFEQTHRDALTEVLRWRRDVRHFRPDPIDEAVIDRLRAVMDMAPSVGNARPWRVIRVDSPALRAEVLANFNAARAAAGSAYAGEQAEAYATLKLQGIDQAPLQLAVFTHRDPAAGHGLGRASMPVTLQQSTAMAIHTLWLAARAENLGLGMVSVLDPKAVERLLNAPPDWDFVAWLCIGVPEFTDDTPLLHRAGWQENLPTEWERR

In the case of `Cc1cc2c(cc1C)N(C[C@H](O)[C@H](O)[C@H](O)COP(=O)(O)O)c1[nH]c(=O)[nH]c(=O)c1N2` [FMNH2], the “HPLC of DMB formed” value on BluB(Bm) is recorded as “DMB formation was observed in reaction mixtures containing either BluB(Rc) or BluB(Bm)”. For the same molecule, the “HPLC of DMB formed; stopped-flow detection of 4a-peroxyflavin at 380 nm” value at BluB(Rc) is reported as “In the case of the BluB(Rc) enzyme, rapid formation of a peroxyflavin intermediate”. Turning to `Cc1cc2nc3c(=O)[nH]c(=O)nc-3n(C[C@H](O)[C@H](O)[C@H](O)COP(=O)(O)O)c2cc1C` [FMN], the “UV-visible spectrum of purified holoprotein; heat release, HPLC and mass spectro” value on CbiY(Bm) is on record as “The flavin cofactor could be removed from the holoenzyme by denaturing the protein”.
